Experimental data from publication PMC7407491, “The Addition of a Synthetic LPS-Targeting Domain Improves Serum Stability While Maintaining Antimicrobial, Antibiofilm, and Cell Stimulating Properties of an Antimicrobial Peptide” (Biomolecules, 2020).

Key:
MRSA = format: cell-based, Methicillin-resistant Staphylococcus aureus; settings: 2 h, pH 7
Method: (§1) Veterinary clinical isolates, including Salmonella typhimurium, multi-drug resistant Escherichia coli, methicillin-resistant Staphylococcus aureus (MRSA), and methicillin-resistant Staphylococcus pseudointermedius (MRSP), were kindly provided by Dr. H. Cai (Department of Pathobiology, University of Guelph, ON, Canada). An antibiogram for these strains is available in the supplementary text (Table S1). Gram-negative strains were cultured in Luria−Bertani (LB) broth. Gram-positive strains were cultured in Tryptic soy broth (TSB). Both cultures were grown under aerobic conditions at 37 °C.
(§2) The minimum bactericidal concentration (MBC) of SynPG-1 against the tested pathogens was identified through a broth macrodilution antimicrobial assay as previously described, with some modification. […] The buffer volume was adjusted to accommodate the addition of SynPG-1 and PG-1 so that the final solution volume was 0.5 mL for each tested concentration. Final peptide concentrations ranged from 0.1 µg/mL to 8 µg/mL. PG-1 at the known MBC (2 µg/mL E. coli; 4 µg/mL S. typhimurium; 0.5 µg/mL MRSP; 0.5 µg/mL MRSA) was considered the in-house positive control, while the suspension containing no peptide was considered the negative control. Experimental and control tubes were incubated for 2 h at 37 °C without shaking to allow for bactericidal action to occur. […] Colony numbers from each plate were recorded. […]

MRSP = format: cell-based, Methicillin-resistant Staphylococcus pseudointermedius; settings: 2 h, pH 7
Method: as §1, §2

MRSA biofilm = experiment: Biofilm inhibition assay, crystal violet; format: cell-based, Methicillin-resistant Staphylococcus aureus
Method: Plates were placed in a static incubator at 37 °C for 48 h; the time required for untreated wells to form biofilm. After incubation, treated media was removed and wells were rinsed with 155 µL of PBS to remove planktonic cells. After sufficient air drying of wells, 150 µL of 0.1% Crystal violet stain was added to each well and incubated at room temperature for 30 min, after which, dye was removed and wells were rinsed again with 155 µL of PBS. After sufficient drying of wells, 150 µL of 70% ethanol solution was added to each well and incubated at room temperature for 30 min. After 30 min, 100 µL of each well was added to a new 96-well plate and absorbance was measured at an OD of 590 nm.

[1] = tested on: pre-formed S. typhimurium biofilm; experiment: Pre-formed biofilm destruction assay, crystal violet; format: cell-based, Salmonella typhimurium; settings: 64 µg/mL, 3 h treatment, crystal violet
Method: To test the destruction of preformed biofilms, in a 96-well plate, 15 µL of overnight culture, of either E. coli, S. typhimurium, or MRSA, was added to 150 µL of minimal salt media (40 mM […]; 22 mM KH2PO4; […] NH4CL; 740 mM NaCl; 2 mM MgSO4; 0.1 mM CaCl2; 22 mM supplemented with D-Glucose) in each well. Plates were placed in a static incubator at 37 °C for 48 h; the time required for untreated wells to form biofilm. After formation, minimal salt media was removed and wells were treated with 155 µL of minimal salt media containing PG-1 or SynPG-1. […] Plates were placed in a static incubator at 37 °C for 3 h. After 3 h, treated media was removed and wells were rinsed with 155 µL of PBS to remove planktonic cells. After sufficient drying of wells, 150 µL of 0.1% crystal violet stain was added to each well and incubated at room temperature for 30 min, after which dye was removed and wells were rinsed again with 155 µL of PBS. After sufficient drying of wells, 150 µL of 70% ethanol solution was added to each well and incubated at room temperature for 30 min. After 30 min, 100 µL of each well was added to a new 96-well plate and absorbance was measured at an OD of 590 nm.

IPEC-J2 cells = experiment: In vitro cell migration, transwell assay; format: cell-based, porcine; settings: transwell 8-micron, serum-free DMEM F-12, 5 to 20 µg/mL, 16 h, Hoechst 33342 count; SynPG-1 not significant at higher concentrations
Method: A cell line, established from intestinal porcine enterocytes, isolated from the jejunum of a neonatal unsuckled piglet (IPEC-J2 cells, DSMZ), was grown in monolayer culture in Dulbecco’s modified Eagle’s medium (high glucose), supplemented with 10% fetal bovine serum (FBS) from Invitrogen, 100 IU/mL penicillin, and 100 µg/mL streptomycin. Cultures were maintained in a 5% CO2 humidified atmosphere at 37 °C and passaged every 2–3 days, with detachment via the Trypsin-EDTA solution (Sigma).
To evaluate migration of IPEC-J2 cells, 8-micron pore-sized cell culture transwell inserts were used (Millipore Inc, Temecula, CA, USA). A total of 1 × 10^5 cells were plated in the upper inserts of the transwell and placed within 24-well plates, containing serum-free DMEM F-12 in the absence and presence of SynPG-1 or PG-1, at concentrations ranging from 5 µg/mL to 20 µg/mL. After incubation for 16 h, the cells were fixed with 4% (w/v) paraformaldehyde. […] Migration was quantified by cell enumeration through Hoechst 33342 staining of cell nuclei (Thermo Fisher Scientific, Mississauga, ON, Canada). The results are represented as the relative fold increase in migrated cells when compared to the baseline migration of IPEC-J2 cells in serum-free media after 16 h.

[2] = 25% porcine intestinal fluid (pH 6.5) in PBS, 1 mg/mL peptide, 1 h 37 °C with shaking; residual activity vs E. coli at 20 µg/mL, colony count; three independent experiments
Method: Porcine digestive fluids were collected, as previously described by Wang et al. [44]. […] The gastrointestinal tract was kept at 4 °C during dissection, and collection of contents from the stomach and upper small intestine (duodenum and jejunum) was conducted within 5 h of sacrifice. Contents were centrifuged at 10,000 rpm (9600× g) for 10 min at 4 °C, and supernatant fluid was collected and stored at −80 °C until its use in the stability experiment. The pH of the collected supernatants were 3.5 and 6.5 for gastric fluid and duodenum fluid, respectively.
Procedures similar to those used by Egger et al. [45] were used for this experiment. […] Suspension containing no peptide was considered the negative control. After incubation, 10 µL of the incubated solutions was added for a total volume of 0.5 mL, consisting of 20 µL of mid-logarithmic phase E. coli cells, diluted to a concentration of about 1 × 10^5 CFU/mL, and 470 µL of 20 mM sodium phosphate buffer (pH 7). […] Stability in porcine digestive fluid was evaluated as the relative colony growth on plates from bacterial grown with digestive fluid and peptide treatments, in comparison to plates grown from bacteria grown with digestive fluid alone.
Stability was evaluated by comparing the mean growth of colonies on plates treated with peptides incubated in digestive fluids to colonies grown when treated without peptide. […]

A. baumanni biofilm = settings: tested alone or with an antibiotic; reduction in crystal violet staining only; cited from earlier work
From the text: Although many have studied the antimicrobial potential of PG-1, its anti-biofilm properties have only been tested against a few species, including Streptococcus mutans and Acinetobacter baumanni. Since the composition of the extracellular polymeric substance (EPS) of a biofilm can vary widely from species to species, further investigation into the PG-1′s spectrum of antibiofilm activity is necessary. To do so, we evaluated the effect of PG-1 and SynPG-1 on the disruption and formation of biofilms from three pathogenic MDR bacteria and measured the remaining viable pathogens. ...

## CC(C)C[C@H](NC(=O)[C@H](CCCNC(=N)N)NC(=O)CNC(=O)CNC(=O)[C@@H](N)CCCNC(=N)N)C(=O)N[C@H]1CSSC[C@@H](C(=O)N[C@H](C(=O)NCC(=O)N[C@@H](CCCNC(=N)N)C(N)=O)C(C)C)NC(=O)[C@H](C(C)C)NC(=O)[C@@H]2CSSC[C@H](NC(=O)[C@H](Cc3ccc(O)cc3)NC1=O)C(=O)N[C@@H](CCCNC(=N)N)C(=O)N[C@@H](CCCNC(=N)N)C(=O)N[C@@H](CCCNC(=N)N)C(=O)N[C@@H](Cc1ccccc1)C(=O)N2 [PG-1, Protegrin-1]
MRSA
  MBC: 0.5 (0.18) μg/mL
MRSP
  MBC: 0.5 (0.18) μg/mL
MRSA biofilm; minimal salt media, 48 h 37 °C static, crystal violet OD 590 nm, p < 0.05 vs control, concentration dependent
  Concentration at which inhibition of biofilm formation was seen: 8 µg/mL
MRSA biofilm; same concentration as SynPG-1 onset (2 µg/mL), crystal violet, 48 h
  Effect on biofilm formation at the concentration where SynPG-1 began to reduce it: significant promotion of biofilm formation
[1]
  Effect on pre-formed biofilm at 64 µg/mL: did not demonstrate a significant reduction
IPEC-J2 cells
  Concentration at which cell migration increased significantly: 20 µg/mL
[2]
  Antimicrobial activity after incubation in 25% porcine intestinal fluid: mean % growth of control increased for SynPG-1 but not PG-1
A. baumanni biofilm
  Antibiofilm activity: no antibiofilm activity
